The values below come from US9957231B2, “Iodine(II)-mediated radiofluorination” (The General Hospital Corporation, priority 2014, dated 2018).

A short description of data set [1]: Stability of biphenyl spiroiodine(III) ylide precursors. It is filed as physicochemical. The source says: Experiments with derivatives of Meldrum's acid 8a and barbituric acid 9a, based on a challenging electron-neutral biphenyl substrate, provided radiochemical conversions of 47% and 53%, respectively. Analogs incorporating substituents on the nitrogen atoms of […] were relatively unstable at room temperature, and analogues with alkyl groups other than methyl on the quaternary carbon of diesters 9b-d were not crystalline. […] Cyclobutyl 10b and cyclopentyl 10c groups provided increased conversions, 70% and 85%, respectively.

The nature of data set [2]: pH assay of the [^18F]FPEB dose with pH indicator paper. Type of data set: physicochemical. Particulars: formulated dose, n = 3. As for the experimental part: The pH of [^18F]FPEB was determined by applying a few drops of the dose to pH indicator paper. Match the reference color and the pH value conformed to our release specifications (pH=4.5-8.5).
Data set [3] can be described thus: Sterility testing in TSB and FTM media. As to conditions: TSB 20-25° C., FTM 30-35° C., 14 days. As for the experimental part: Sterility testing was performed post-release and must be started within 30 hours from end of synthesis. [^18F]FPEB sample was inoculated into Trypitcase Soy Broth (TSB) and Fluid Thioglycollate Medium (FTM) media tubes. TSB tubes were incubated at 20-25° C. and FTM tubes were incubated at 30-35° C. for 14 days and must be free of culture growth after 14 days.

`O=C1OC2(CCCCC2)OC(=O)C1=Ic1ccc(-c2ccccc2)cc1` [Example 10a, 1,5-dioxaspiro[5.5]undecane-2,4-dion-[1,1′biphenyl-4-iodonium]ylide]: the stability of precursor result in data set [1] (room temperature / solid state) was “stable crystalline solid”. For the compound `O=C1OC2(CCCC2)OC(=O)C1=Ic1ccc(-c2ccccc2)cc1` [Example 10c, 6,10-dioxaspiro[4.5]decane-7,9-dion-[1,1′-biphenyl-4-iodonium]ylide], in data set [1] (DMF, 120° C., 10 min), the “thermal stability under the radiolabelling conditions” value is “good thermal stability”.

Usually melting point stands for the temperature, or range, at which the solid turns liquid. Consider `N#Cc1cc(C#Cc2ccccn2)cc(I=C2C(=O)OC3(CCCC3)OC2=O)c1` [Example 31, 3-((7,9-dioxo-6,10-dioxaspiro[4.5]decan-8-ylidene)-1.3-iodanyl)-5-(pyridin-2-ylethynyl)benzonitrile], for which the melting point was 145 to 150 °C (dec.). Same read-out and setting: with `NC(=O)c1cc(F)cc(C#Cc2ccccn2)c1` [Example 32, 3-fluoro-5-(pyridin-2-ylethynyl)benzamide] the figure was 175 to 176 °C. With `N#Cc1cc([18F])cc(C#Cc2ccccn2)c1` [[^18F]FPEB, [^18F]3-fluoro-5-(pyridin-2-ylethynyl)benzonitrile], the “pH Assay” value in data set [2] was 5-5.5. Also, the “Sterility Testing” value in data set [3] is “No evidence of growth at 14 days post”.
